Source: patent publication US4555504A, “Inclusion complex of β-cyclodextrin and digoxin” (Burroughs Wellcome Co., priority 1981, dated 1985)
Values after ≈ are worked out from the molar mass of the structure shown.

Experiments:
[1] = background statement; cited from earlier work
[2] = Comparative solubility of complexed and non-complexed cardiac glycosides in deionised water; format: physicochemical; details: shaken about 8 hours, ambient temperature, HPLC
Description: The resultant mixture was filtered through a filter paper (Whatman No. 2) and then through a membrane filter (0.02 um, Millipore), the filtrate diluted 100 fold with deionised water and the solution thus obtained assayed for cardiac glycoside in a conventional manner using high performance liquid chromatography.

[3] = Comparative dissolution of complexed and non-complexed digoxin (B.P. rotating basket); format: physicochemical; details: B.P. 1980 rotating basket, deionised water (1 liter), 37° C., HPLC
Description: The dissolution rate of complexed (1:3 complex, Example 1) and non-complexed digoxin was determined in the British Pharmacopoeia rotating basket apparatus (B.P., 1980). The dissolution medium was deionised water (1 liter) at 37° C. A scoop containing sample (about […] of digoxin or about […] of digoxin/B-cyclodextrin complex) was added to the dissolution medium and allowed to settle to the base of the vessel. Samples (2 ml) were taken at intervals up to 60 minutes via a volumetric pippette and assayed by high performance liquid chromatography to determine cumulative percentage release of drug.

In the case of `C[C@H]1O[C@@H](O[C@H]2[C@@H](O)C[C@H](O[C@H]3[C@@H](O)C[C@H](O[C@H]4CC[C@@]5(C)[C@H](CC[C@@H]6[C@@H]5C[C@@H](O)[C@]5(C)[C@@H](C7=CC(=O)OC7)CC[C@]65O)C4)O[C@@H]3C)O[C@@H]2C)C[C@H](O)[C@@H]1O` [Digoxin, digoxin], the “solubility of digoxin in water” value [1] is given as roughly 0.005%, the solubility at 8 h [2] is given as 46 µg/mL (≈ 58.9 µM) and the solubility thermodynamic at 8 h ([2]; read-out: Solubility, Non-complexed (percent)) is given as 46 µg/mL (≈ 58.9 µM). The “T80 (time for 80% release)” value [3] was greater than 60 min.
